Source: ChEMBL document CHEMBL5321245, “Synthesis and Bioactivity of Isoflavones from Ficus carica and Some Non-Natural Analogues” (J Nat Prod, 2023)
≈ marks a conversion by molar mass, not a printed value.

What was measured:
Staphylococcus aureus [1] = assay: Antibacterial activity against methicillin-resistant Staphylococcus aureus 6 assessed as inhibition of bacterial growth incubated for 18 to 24 hrs by microdilution method; format: functional; settings: time 18-24 hrs
Escherichia coli [2] = assay: Antibacterial activity against Escherichia coli AG102 assessed as inhibition of bacterial growth incubated for 18 to 24 hrs by microdilution method; format: functional; settings: time 18-24 hrs
Providencia stuartii [3] = assay: Antibacterial activity against Providencia stuartii NEA16 assessed as inhibition of bacterial growth incubated for 18 to 24 hrs by microdilution method; format: functional; settings: time 18-24 hrs
Staphylococcus aureus [4] = assay: Antibacterial activity against methicillin-resistant Staphylococcus aureus 4 assessed as inhibition of bacterial growth incubated for 18 to 24 hrs by microdilution method; format: functional; settings: time 18-24 hrs
Klebsiella pneumoniae [5] = assay: Antibacterial activity against Klebsiella pneumoniae ATCC 11296 assessed as inhibition of bacterial growth incubated for 18 to 24 hrs in presence of PAbetaN by microdilution method; format: functional; settings: time 18-24 hrs
CCRF-CEM [6] = assay: Cytotoxicity against drug sensitive human CCRF-CEM cells assessed as inhibition of cell growth at 10 uM incubated for 72 hrs by resazurin dye based assay relative to control; format: functional
Pseudomonas aeruginosa [7] = assay: Antibacterial activity against Pseudomonas aeruginosa PA124 assessed as inhibition of bacterial growth incubated for 18 to 24 hrs by microdilution method; format: functional; settings: time 18-24 hrs
Providencia stuartii [8] = assay: Antibacterial activity against Providencia stuartii PS2636 assessed as inhibition of bacterial growth incubated for 18 to 24 hrs in the presence of PAbetaN by microdilution method; format: functional; settings: time 18-24 hrs
Klebsiella pneumoniae [9] = assay: Antibacterial activity against Klebsiella pneumoniae KP63 assessed as inhibition of bacterial growth incubated for 18 to 24 hrs in presence of PAbetaN by microdilution method; format: functional; settings: time 18-24 hrs
Providencia stuartii [10] = assay: Antibacterial activity against Providencia stuartii PS2636 assessed as inhibition of bacterial growth incubated for 18 to 24 hrs by microdilution method; format: functional; settings: time 18-24 hrs
Pseudomonas aeruginosa [11] = assay: Antibacterial activity against Pseudomonas aeruginosa PA124 assessed as inhibition of bacterial growth incubated for 18 to 24 hrs in the presence of PAbetaN by microdilution method; format: functional; settings: time 18-24 hrs
Providencia stuartii [12] = assay: Antibacterial activity against Providencia stuartii NEA16 assessed as inhibition of bacterial growth incubated for 18 to 24 hrs in the presence of PAbN by microdilution method; format: functional; settings: time 18-24 hrs
Klebsiella pneumoniae [13] = assay: Antibacterial activity against Klebsiella pneumoniae KP63 assessed as inhibition of bacterial growth incubated for 18 to 24 hrs by microdilution method; format: functional; settings: time 18-24 hrs
Staphylococcus aureus [14] = assay: Antibacterial activity against methicillin-resistant Staphylococcus aureus 4 assessed as inhibition of bacterial growth incubated for 18 to 24 hrs in the presence of PAbetaN by microdilution method; format: functional; settings: time 18-24 hrs
Klebsiella pneumoniae [15] = assay: Antibacterial activity against Klebsiella pneumoniae ATCC 11296 assessed as inhibition of bacterial growth incubated for 18 to 24 hrs by microdilution method; format: functional; settings: time 18-24 hrs
Escherichia coli [16] = assay: Antibacterial activity against Escherichia coli AG102 assessed as inhibition of bacterial growth incubated for 18 to 24 hrs in the presence of PAbetaN by microdilution method; format: functional; settings: time 18-24 hrs
Pseudomonas aeruginosa [17] = assay: Antibacterial activity against Pseudomonas aeruginosa PA01 assessed as inhibition of bacterial growth incubated for 18 to 24 hrs by microdilution method; format: functional; settings: time 18-24 hrs
Pseudomonas aeruginosa [18] = assay: Antibacterial activity against Pseudomonas aeruginosa PA01 assessed as inhibition of bacterial growth incubated for 18 to 24 hrs in the presence of PAbetaN by microdilution method; format: functional; settings: time 18-24 hrs
Escherichia coli [19] = assay: Antibacterial activity against Escherichia coli ATCC 10536 assessed as inhibition of bacterial growth incubated for 18 to 24 hrs by microdilution method; format: functional; settings: time 18-24 hrs
Escherichia coli [20] = assay: Antibacterial activity against Escherichia coli ATCC 10536 assessed as inhibition of bacterial growth incubated for 18 to 24 hrs in the presence of PAbetaN by microdilution method; format: functional; settings: time 18-24 hrs
Staphylococcus aureus [21] = assay: Antibacterial activity against methicillin-resistant Staphylococcus aureus 6 assessed as inhibition of bacterial growth incubated for 18 to 24 hrs in the presence of PAbetaN by microdilution method; format: functional; settings: time 18-24 hrs
RAW264.7 = assay: Antiinflammatory activity in mouse RAW264.7 cells assessed as inhibition of LPS-induced NO production; format: functional, cell-based
MCF7 = assay: Antiproliferative activity against human MCF7 cells assessed as inhibition of cell growth by MTT assay; format: functional, cell-based
SMMC-7721 = assay: Antiproliferative activity against human SMMC-7721 cells assessed as inhibition of cell growth by MTT assay; format: functional, cell-based
HL-60 = assay: Antiproliferative activity against human HL-60 cells assessed as inhibition of cell growth by MTT assay; format: functional, cell-based
SW480 = assay: Antiproliferative activity against human SW480 cells assessed as inhibition of cell growth by MTT assay; format: functional, cell-based
A549 = assay: Antiproliferative activity against human A549 cells assessed as inhibition of cell growth by MTT assay; format: functional, cell-based
ADR5000 cell line = assay: Cytotoxicity against multidrug resistant human CEM/ADR5000 cells overexpressing p-glycoprotein assessed as inhibition of cell growth incubated for 72 hrs by resazurin dye based assay; format: functional; settings: ADR5000, 72 h
CCRF-CEM [22] = assay: Cytotoxicity against drug sensitive human CCRF-CEM cells assessed as inhibition of cell growth incubated for 72 hrs by resazurin dye based assay; format: functional
Staphylococcus aureus [23] = assay: Antibacterial activity against Staphylococcus aureus […] assessed as inhibition of bacterial growth incubated for 24 hrs by broth microdilution method; format: functional
Enterococcus faecalis = assay: Antibacterial activity against Enterococcus faecalis ATCC10541 assessed as inhibition of bacterial growth incubated for 24 hrs by broth microdilution method; format: functional
Nannizzia gypsea = assay: Antimicrobial activity against Microsporum gypseum E1420 assessed as inhibition of microbial growth incubated for 5 days by broth microdilution method; format: functional; settings: E1420, 120 h, time 5 day
[24] = system: Meyerozyma guilliermondii; assay: Antimicrobial activity against clinical isolate Candida guilliermondii assessed as inhibition of microbial growth incubated for 48 hrs by broth microdilution method; format: functional
Providencia stuartii [25] = assay: Antibacterial activity against Providencia stuartii ATCC29916 assessed as inhibition of bacterial growth incubated for 24 hrs by broth microdilution method; format: functional
Candida albicans = assay: Antimicrobial activity against Candida albicans ATCC 2091 assessed as inhibition of microbial growth incubated for 48 hrs by broth microdilution method; format: functional

| Compound | MIC (Staphylococcus aureus [1]) [µg/mL] | MIC (Escherichia coli [2]) [µg/mL] | MIC (Providencia stuartii [3]) [µg/mL] | MIC (Staphylococcus aureus [4]) [µg/mL] | MIC (Klebsiella pneumoniae [5]) [µg/mL] | MIC (Pseudomonas aeruginosa [7]) [µg/mL] | MIC (Providencia stuartii [8]) [µg/mL] | MIC (Klebsiella pneumoniae [9]) [µg/mL] | MIC (Providencia stuartii [10]) [µg/mL] | MIC (Pseudomonas aeruginosa [11]) [µg/mL] | MIC (Providencia stuartii [12]) [µg/mL] | MIC (Klebsiella pneumoniae [13]) [µg/mL] | MIC (Staphylococcus aureus [14]) [µg/mL] | MIC (Klebsiella pneumoniae [15]) [µg/mL] | MIC (Escherichia coli [16]) [µg/mL] | MIC (Pseudomonas aeruginosa [17]) [µg/mL] | MIC (Pseudomonas aeruginosa [18]) [µg/mL] | MIC (Escherichia coli [19]) [µg/mL] | MIC (Escherichia coli [20]) [µg/mL] | MIC (Staphylococcus aureus [21]) [µg/mL] | other results |
| --- | --- | --- | --- | --- | --- | --- | --- | --- | --- | --- | --- | --- | --- | --- | --- | --- | --- | --- | --- | --- | --- |
| COc1cc2occ(-c3ccc4[nH]ccc4c3)c(=O)c2c(OC)c1CC=C(C)C | 32 (≈ 82.2 µM) | 130 (≈ 334 µM) | 130 (≈ 334 µM) | > 130 | 4 | > 130 | 4 | 1 | 64 (≈ 164 µM) | 2 | 8 | > 130 | 4 | 130 (≈ 334 µM) | 64 | 130 (≈ 334 µM) | 8 | 130 (≈ 334 µM) | 130 | 1 | inhibition at 10 µM (CCRF-CEM [6]): < 50% |
| COc1ccc(-c2coc3cc(OC)c(CC=C(C)C)c(OC)c3c2=O)cc1 | 32 (≈ 84.1 µM) | 32 (≈ 84.1 µM) | 130 (≈ 342 µM) | 64 (≈ 168 µM) | 2 | 64 (≈ 168 µM) | 4 | 1 | 130 (≈ 342 µM) | 8 | 4 | > 130 | 8 | 130 (≈ 342 µM) | 2 | > 130 | 64 | 32 (≈ 84.1 µM) | 2 | 2 | IC50 (RAW264.7): 2.06 µM; IC50 (MCF7): 0.63 µM; IC50 (SMMC-7721): 0.63 µM; inhibition at 10 µM (CCRF-CEM [6]): < 50%; IC50 (HL-60): 0.63 µM; IC50 (SW480): 0.63 µM; IC50 (A549): 0.63 µM |
| O=C(O)c1cn(C2CC2)c2cc(N3CCNCC3)c(F)cc2c1=O [CIPROFLOXACIN] | 4 (≈ 12.1 µM) |  | 2 (≈ 6.04 µM) | 8 (≈ 24.1 µM) |  | 4 (≈ 12.1 µM) | 0.5 |  | 4 (≈ 12.1 µM) | 1 | 0.25 |  | 1 | 1 (≈ 3.02 µM) |  |  |  |  |  | 1 |  |
| COc1cc2occ(-c3ccc(C=O)cc3)c(=O)c2c(OC)c1CC=C(C)C | 130 (≈ 344 µM) | 130 (≈ 344 µM) | 64 (≈ 169 µM) | 130 (≈ 344 µM) | 8 | 130 (≈ 344 µM) | 16 | 2 | 130 (≈ 344 µM) | 8 | 2 | 130 (≈ 344 µM) | 8 | > 130 | 8 | 64 (≈ 169 µM) | 16 | 32 (≈ 84.6 µM) | 8 | 64 | IC50 (ADR5000 cell line): 20 µM; IC50 (CCRF-CEM [22]): 20 µM |
| COc1cc2occ(-c3ccc(O)cc3)c(=O)c2c(OC)c1CC=C(C)C | 32 (≈ 87.3 µM) | 16 (≈ 43.7 µM) | 8 (≈ 21.8 µM) | 64 (≈ 175 µM) | 2 | 32 (≈ 87.3 µM) | 4 | 1 | 130 (≈ 355 µM) | 4 | 1 | 16 (≈ 43.7 µM) | 32 | 130 (≈ 355 µM) | 4 | 130 (≈ 355 µM) | 130 | 130 (≈ 355 µM) | 2 | 32 | MIC (Staphylococcus aureus [23]): ≥ 100 µg/mL; inhibition at 10 µM (CCRF-CEM [6]): < 50%; MIC (Enterococcus faecalis): ≥ 100 µg/mL; MIC (Nannizzia gypsea): 12.5 µg/mL; MIC [24]: 12.5 µg/mL; MIC (Providencia stuartii [25]): ≥ 100 µg/mL; MIC (Candida albicans): 12.5 µg/mL |
